System: male and female Sprague–Dawley rats
Experiment: 90-day subchronic oral gavage toxicity study
Format: in vivo, rat
Design: key to NOEL, absolute liver weight increase / LOEL, absolute liver weight increase / NOEL, relative kidney weight increase / LOEL, relative kidney weight increase / NOEL, absolute kidney weight increase / LOEL, absolute kidney weight increase / NOEL, relative liver weight increase / LOEL, relative liver weight increase: NR: no response, no statistically significant dose-dependent changes
Description: Subchronic (90-day) studies were performed in accordance with current U.S. EPA’s Toxic Substances Control Act Good Laboratory Practice (GLP) Standards, with the following two general exceptions to the GLP guidelines: Analysis of the dose formulations was conducted according to RTI-approved Standard Operating Procedures, and corn oil (the vehicle) was not characterized (certificate of analysis from the vendor is available in the appendices to the final reports). Male and female Sprague–Dawley rats (five dose levels plus a control, n = 10/sex/dose group, corn oil vehicle dose volume of 3 mL/kg; oral gavage) were used in these studies, and the rats were euthanized on SD 91. The dose levels for PFHI were 0, 12.5, 25, 50, 100, and 200 mg/kg-day. The dose levels for MHFPK were 0, 18.8, 37.5, 75, 150, and 300 mg/kg-day. The dose levels for PFNAC were 0, 0.1, 0.3, 1.0, 3.0, and 10 mg/kg-day for male rats and 0, 0.3, 1.0, 3.0, 10, and 30 mg/kg-day for female rats. For CTFPA, the dose levels were 0, 1.9, 3.8. 7.5, 15, and 30 mg/kg-day for male rats and 0, 6.3, 12.5, 25, 50, and 100 mg/kg-day for female rats. For each PFAS, three batches of dosing solution were prepared. The time between the batch preparation of the dosing solutions ranged between 29 and 39 days. Blood samples were collected from all the rats at termination for serum chemistry, hematology, coagulation, and the analysis of the parent PFAS chemical in the plasma. In vivo data collection and further detail on the endpoints examined postmortem are described below.
The rats were observed twice daily for morbidity and mortality throughout the study period. At least once prior to randomization to test groups and weekly thereafter, the rats were physically examined, and bodyweights were obtained. Feed consumption was quantified weekly starting on SD 1.
Neurotoxicity was evaluated using the functional observational battery (FOB) and measuring locomotor activity (LMA) 2–4 h post dosing on SDs 78–80 and 80–84, respectively. For both the 14- and 90-day studies, an ophthalmologic examination was conducted prior to randomization and near the end of the study, using indirect ophthalmoscopy and slit–lamp biomicroscopy (as needed) after the administration of a mydriatic solution.
Hematology, biochemistry, and coagulation endpoints were measured at the termination of the study. A Siemens Advia 2120i hematology analyzer (Siemens Healthineers, Erlangen, Germany) was used to measure (or calculate) the parameters related to the complete blood count, leukocyte differential count, and reticulocyte count. The hematology parameters are listed and described in Table 2. The prothrombin time […] and activated partial thromboplastin time (APTT) were measured using an Instrumentation Laboratory (Bedford, MA, USA) ACL Elite Pro coagulation analyzer (laser–nephelometric centrifugal method).
At necropsy, the rats were visually examined for external abnormalities and organ weights (absolute and relative to the BW and brain weight), which were recorded (paired organs weighed together). The tissues were preserved in 10% neutral buffered formalin (NBF), except for the ocular tissues, testes, and epididymides, which were preserved in modified Davidson’s fixative and later transferred to 10% NBF. Bone marrow smears were prepared from the femurs, and the slides were air-dried, fixed in methanol, stained, and stored at room temperature for possible future evaluation. The preserved tissues were embedded in paraffin, sectioned, stained with hematoxylin and eosin, and examined by a board-certified veterinary pathologist.
Statistical analysis was performed using Provantis™ Version 10 or greater (Instem LSS, Limited; Stone, Staffordshire, UK). Differences among the treatment groups compared to the control were evaluated using one-way analysis of variance (ANOVA) if the underlying assumptions of a normal distribution (Shapiro–Wilk test) and the homogeneity of the variance (Levene’s test) were satisfied. […]

O=C(O)C(F)(Cl)C(F)(F)F (stereo not shown) [CTFPA, 2-Chloro-2,3,3,3-tetrafluoropropanoic acid]
Bodyweight (BW) and bodyweight gain (90-day, both sexes, all doses): None CTPFA related
Clinical chemistry (90-day, both sexes, all doses): From minimal to mild increases in albumin and the A/G ratio in males at ≥7.5 mg/kg-day and in females at ≥50 mg/kg; only in males—from minimal to mild decreases in globulin at ≥7.5 mg/kg-day; from minimal to mild increases in ALPi at ≥7.5 mg/kg-day, and minimally increased BUN at 30 mg/kg-day
Clinical observations (90-day, both sexes, all doses): None
Coagulation endpoints (90-day, both sexes, all doses): From minimal to mild dose-dependent decreased APTT in males at ≥3.8 mg/kg; no effect in females
Feed consumption (90-day, both sexes, all doses): Significant non-adverse increases in males at ≥3.8 mg/kg-day; minor effects in females, not considered as CTFPA related
Functional observational battery (90-day, both sexes, all doses): No changes
Gross lesions (90-day, both sexes, all doses): None considered as CTFPA related
Hematology (90-day, both sexes, all doses): From minimal to mild decreases in red cell mass (RBC, HCT, and HGB) and increases in RDW in males at ≥7.5 mg/kg-day; no similar effect in females; from minimal to mild increased MPV in males at ≥3.8 mg/kg-day and in females at ≥50 mg/kg-day
Histopathology (90-day, both sexes, all doses): The liver of males and females; the heart and nasal turbinates of males
Locomotor activity (90-day, both sexes, all doses): No effects
Morbidity and mortality (90-day, both sexes, all doses): None
Ophthalmology (90-day, both sexes, all doses): No ocular lesions
Organ weight changes (90-day, both sexes, all doses): Mean absolute and/or relative liver weight increases in males at ≥3.8 mg/kg-day and in females at ≥25 mg/kg-day ^6; mean thymus weights increased in males at ≥15 mg/kg-day; mean kidney weights increased in females at ≥50 mg/kg-day
BMD10, absolute liver weight increase (female): 13.6 mg/kg-day
BMDL, absolute liver weight increase (female): 5.1 mg/kg-day
LOEL, absolute kidney weight increase (female): NR
LOEL, absolute liver weight increase (female): 25 mg/kg-day
LOEL, relative kidney weight increase (female): NR
LOEL, relative liver weight increase (female): 25 mg/kg-day
NOEL, absolute kidney weight increase (female): NR
NOEL, absolute liver weight increase (female): 12.5 mg/kg-day
NOEL, relative kidney weight increase (female): NR
NOEL, relative liver weight increase (female): 12.5 mg/kg-day
A/G (female, 1.9 mg/kg-day): 1.10±0.09 ratio
ALB (female, 1.9 mg/kg-day): 4.07 ± 0.31 g/dL
ALPi (female, 1.9 mg/kg-day): 49.7±22.7 U/L
BUN (female, 1.9 mg/kg-day): 16.4 ± 3.6 mg/dL
CHOL (female, 1.9 mg/kg-day): 94.7 ± 23.9 mg/dL
GLOB (female, 1.9 mg/kg-day): 3.69 ± 0.19 g/dL
GLUC (female, 1.9 mg/kg-day): 140.7 ± 21.5 mg/dL
A/G (female, 3.8 mg/kg-day): 1.17±0.10 ratio
ALB (female, 3.8 mg/kg-day): 4.41 ± 0.33 g/dL
ALPi (female, 3.8 mg/kg-day): 56.6±19.8 U/L
BUN (female, 3.8 mg/kg-day): 16.5 ± 3.0 mg/dL
CHOL (female, 3.8 mg/kg-day): 95.9 ± 14.5 mg/dL
GLOB (female, 3.8 mg/kg-day): 3.78 ± 0.20 g/dL
GLUC (female, 3.8 mg/kg-day): 133.0 ± 25.5 mg/dL
% BW Gain (female, 6.3 mg/kg-day): 59.29%
% Diff, % BW Gain (female, 6.3 mg/kg-day): 12.55%
% Diff, Total BW change (female, 6.3 mg/kg-day): 13.40%
% Diff, Total Food Consumed (female, 6.3 mg/kg-day): 8.28%
APTT (female, 6.3 mg/kg-day): 17.76 s
HCT (female, 6.3 mg/kg-day): 47.57±2.23%
HGB (female, 6.3 mg/kg-day): 15.03 ± 0.80 g/dL
Kidney Weight (female, 6.3 mg/kg-day): 1.91 g
Kidney/Body Weight (female, 6.3 mg/kg-day): 0.57%
Kidney/Brain Weight (female, 6.3 mg/kg-day): 95.5%
Liver Weight (female, 6.3 mg/kg-day): 8.76 g
Liver/Body Weight (female, 6.3 mg/kg-day): 2.59%
Liver/Brain Weight (female, 6.3 mg/kg-day): 437%
MPV (female, 6.3 mg/kg-day): 7.57 ± 0.49 fL
PT (female, 6.3 mg/kg-day): 14.58 s
Total BW change (female, 6.3 mg/kg-day): 129.35 g
Total Food Consumed (female, 6.3 mg/kg-day): 1671 g
A/G (female, 7.5 mg/kg-day): 1.18±0.14 ratio
ALB (female, 7.5 mg/kg-day): 4.36 ± 0.42 g/dL
ALPi (female, 7.5 mg/kg-day): 54.6±16.8 U/L
BUN (female, 7.5 mg/kg-day): 16.4 ± 2.4 mg/dL
CHOL (female, 7.5 mg/kg-day): 98.2 ± 26.4 mg/dL
GLOB (female, 7.5 mg/kg-day): 3.70 ± 0.28 g/dL
GLUC (female, 7.5 mg/kg-day): 143.6 ± 21.3 mg/dL
% BW Gain (female, 12.5 mg/kg-day): 56.17%
% Diff, % BW Gain (female, 12.5 mg/kg-day): 6.64%
% Diff, Total BW change (female, 12.5 mg/kg-day): 5.12%
% Diff, Total Food Consumed (female, 12.5 mg/kg-day): 1.02%
APTT (female, 12.5 mg/kg-day): 16.20 s
HCT (female, 12.5 mg/kg-day): 45.99±2.31%
HGB (female, 12.5 mg/kg-day): 14.52 ± 0.79 g/dL
Kidney Weight (female, 12.5 mg/kg-day): 1.97 g
Kidney/Body Weight (female, 12.5 mg/kg-day): 0.60%
Kidney/Brain Weight (female, 12.5 mg/kg-day): 93.7%
Liver Weight (female, 12.5 mg/kg-day): 8.97 g
Liver/Body Weight (female, 12.5 mg/kg-day): 2.71%
Liver/Brain Weight (female, 12.5 mg/kg-day): 428%
MPV (female, 12.5 mg/kg-day): 8.00 ± 0.97 fL
PT (female, 12.5 mg/kg-day): 14.17 s
Total BW change (female, 12.5 mg/kg-day): 119.91 g
Total Food Consumed (female, 12.5 mg/kg-day): 1559 g
A/G (female, 15 mg/kg-day): 1.19±0.08 ratio
ALB (female, 15 mg/kg-day): 4.46 ± 0.44 g/dL
ALPi (female, 15 mg/kg-day): 57.7±20.2 U/L
BUN (female, 15 mg/kg-day): 16.3 ± 2.3 mg/dL
CHOL (female, 15 mg/kg-day): 96.5 ± 26.2 mg/dL
GLOB (female, 15 mg/kg-day): 3.73 ± 0.20 g/dL
GLUC (female, 15 mg/kg-day): 154.6 ± 21.6 mg/dL
% BW Gain (female, 25 mg/kg-day): 53.36%
% Diff, % BW Gain (female, 25 mg/kg-day): 1.29%
% Diff, Total BW change (female, 25 mg/kg-day): 1.52%
% Diff, Total Food Consumed (female, 25 mg/kg-day): 2.96%
APTT (female, 25 mg/kg-day): 21.82 s
HCT (female, 25 mg/kg-day): 46.61±2.96%
HGB (female, 25 mg/kg-day): 14.62 ± 1.04 g/dL
Kidney Weight (female, 25 mg/kg-day): 1.97 g
Kidney/Body Weight (female, 25 mg/kg-day): 0.60%
Kidney/Brain Weight (female, 25 mg/kg-day): 95.0%
Liver Weight (female, 25 mg/kg-day): 9.97 g
Liver/Body Weight (female, 25 mg/kg-day): 3.02%
Liver/Brain Weight (female, 25 mg/kg-day): 483%
MPV (female, 25 mg/kg-day): 7.65 ± 0.50 fL
PT (female, 25 mg/kg-day): 14.34 s
Total BW change (female, 25 mg/kg-day): 115.80 g
Total Food Consumed (female, 25 mg/kg-day): 1589 g
A/G (female, 30 mg/kg-day): 1.22±0.07 ratio
ALB (female, 30 mg/kg-day): 4.62 ± 0.45 g/dL
ALPi (female, 30 mg/kg-day): 74.1±17.5 U/L
BUN (female, 30 mg/kg-day): 18.3 ± 2.5 mg/dL
CHOL (female, 30 mg/kg-day): 101.9 ± 15.8 mg/dL
GLOB (female, 30 mg/kg-day): 3.77 ± 0.25 g/dL
GLUC (female, 30 mg/kg-day): 153.4 ± 21.2 mg/dL
% BW Gain (female, 50 mg/kg-day): 51.94%
% Diff, % BW Gain (female, 50 mg/kg-day): -1.40%
% Diff, Total BW change (female, 50 mg/kg-day): -0.34%
% Diff, Total Food Consumed (female, 50 mg/kg-day): 2.22%
APTT (female, 50 mg/kg-day): 17.22 s
HCT (female, 50 mg/kg-day): 45.75±1.73%
HGB (female, 50 mg/kg-day): 14.30 ± 0.57 g/dL
Kidney Weight (female, 50 mg/kg-day): 2.07 g
Kidney/Body Weight (female, 50 mg/kg-day): 0.63%
Kidney/Brain Weight (female, 50 mg/kg-day): 102%
Liver Weight (female, 50 mg/kg-day): 10.49 g
Liver/Body Weight (female, 50 mg/kg-day): 3.21%
Liver/Brain Weight (female, 50 mg/kg-day): 520%
MPV (female, 50 mg/kg-day): 8.10 ± 0.46 fL
PT (female, 50 mg/kg-day): 14.57 s
Total BW change (female, 50 mg/kg-day): 113.68 g
Total Food Consumed (female, 50 mg/kg-day): 1577 g
% BW Gain (female, 100 mg/kg-day): 49.85%
% Diff, % BW Gain (female, 100 mg/kg-day): -5.37%
% Diff, Total BW change (female, 100 mg/kg-day): -5.90%
% Diff, Total Food Consumed (female, 100 mg/kg-day): 4.68%
APTT (female, 100 mg/kg-day): 21.23 s
HCT (female, 100 mg/kg-day): 46.76±2.13%
HGB (female, 100 mg/kg-day): 14.60 ± 0.66 g/dL
Kidney Weight (female, 100 mg/kg-day): 2.05 g
Kidney/Body Weight (female, 100 mg/kg-day): 0.65%
Kidney/Brain Weight (female, 100 mg/kg-day): 104%

Source: article PMC12298827, “Subchronic Toxicities of Four Per- and Polyfluoroalkyl Substances (PFASs) by Oral Exposure in Sprague–Dawley Rats” (Toxics, 2025)
